From patent US8357694B2, “Substituted 5,6-dihydro-6-phenylbenzo[F]isoquinolin-2-amine compounds” (ArQule, Inc., priority 2008, dated 2013) come the findings set out here.

Where a name gives a salt, the structure may show the parent alone.

Series [1] has as its system SNU-16. As to the kind of experiment: MTS assay, SNU-16. Format: cell-based. The settings on record: Homo sapiens, SNU-16, SNU-16; read-out: MTS cell kill data (IC50-μM) SNU-16.
Protocol: Cells were maintained at 37° C., 5% CO2 in DMEM media supplemented with 1% fetal bovine serum, penicillin/streptomycin and fungizone (Invitrogen). Cells were seeded into 96-well tissue culture plates at 3000 per well and cultured at 37° C. for 18 hours. Test compounds were dissolved and diluted to 300× in DMSO then diluted 1:40 in DMEM.
Series [2] addresses T1, FGFR2 kinase (Homo sapiens, UniProt P21802, N549H).
T1 construct: purchased Millipore 14-742
The series is described as follows: fluorescent ELISA FGFR2 kinase assay (biochemical). As to conditions: FGFR2 (N549H); read-out: Biochemical data (IC50-μM) FGFR2 (N549H). Here is the method:
The enzymatic assays described herein are conducted according to the following procedures from commercially available reagents. In one, non limiting, example, a fluorescent ELISA assay is used to identify and characterize inhibitors of FGFR2 kinase as described herein. This heterogeneous assay utilizes a biotinylated peptide with a tyrosine motif as a substrate and an anti-phospho-tyrosine antibody to measure phosphorylation of the substrate. […] The reaction is incubated for 60 minutes. As the reaction proceeds, FGFR2 phosphorylates tyrosines in the peptide. […] Peptides are captured for 30 minutes at room temperature, the phosphorylation of peptides continues during this phase. The reaction is stopped by washing the streptavidin-coated plate 6 times with TBST. […] Unbound anti-phospho-tyrosine antibody is removed by washing the streptavidin-coated plate 6 times with TBST. […] Unbound secondary antibody is removed by washing the streptavidin-coated plate 6 times with TBST.
A general note: In an ELISA, binding on a coated surface is turned into a signal by an enzyme label.

T1 sequence (P21802 456-770 N549H limits assumed): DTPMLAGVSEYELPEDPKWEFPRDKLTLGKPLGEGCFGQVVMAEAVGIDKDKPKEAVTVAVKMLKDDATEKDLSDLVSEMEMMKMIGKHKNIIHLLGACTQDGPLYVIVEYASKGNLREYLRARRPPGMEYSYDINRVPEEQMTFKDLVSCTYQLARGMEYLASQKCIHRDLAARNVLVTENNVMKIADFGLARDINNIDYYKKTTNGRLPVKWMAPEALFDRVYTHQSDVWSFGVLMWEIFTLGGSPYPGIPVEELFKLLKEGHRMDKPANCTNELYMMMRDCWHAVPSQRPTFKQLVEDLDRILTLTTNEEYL

As to `COCCNCCc1cc(Nc2ncc3c(n2)-c2ccccc2[C@H](c2ccccc2F)C3)ccc1F` [Example 173, (R)-N-(4-fluoro-3-(2-(2-methoxyethylamino)ethyl)phenyl)-6-(2-fluorophenyl)-5,6-dihydrobenzo[h]quinazolin-2-amine hydrochloride salt], the IC50 stood at 0.519 µM in series [1] and 0.0359 µM in series [2].

Consider `Brc1ccc([C@H]2Cc3cnc(Nc4ccc(CCN5CCCCC5)cc4)nc3-c3ccccc32)cc1` [Example 108, (R)-6-(4-bromophenyl)-N-(4-(2-(piperidin-1-yl)ethyl)phenyl)-5,6-dihydrobenzo[h]quinazolin-2-amine hydrochloride salt], for which the IC50 in series [2] was determined as 0.354 µM. Take `CCCCN(C)CCc1cc(Nc2ncc3c(n2)-c2ccccc2[C@H](c2ccccc2F)C3)ccc1F` [Example 172, (R)-N-(3-(2-(butyl(methyl)amino)ethyl)-4-fluorophenyl)-6-(2-fluorophenyl)-5,6-dihydrobenzo[h]quinazolin-2-amine hydrochloride salt]: in series [2], the half-maximal inhibitory concentration (IC50) was found to be 0.0922 µM. Take `CCCCN(C)CCc1ccc(Nc2ncc3c(n2)-c2ccccc2[C@H](c2ccc(Cl)c(Cl)c2)C3)cc1` [Example 105, (S)-N-(4-(2-(butyl(methyl)amino)ethyl)phenyl)-6-(3,4-dichlorophenyl)-5,6-dihydrobenzo[h]quinazolin-2-amine hydrochloride salt]: the IC50 is 5.03 µM in series [1] and 0.499 µM in series [2]. Turning to `Fc1ccc([C@H]2Cc3cnc(Nc4ccc(CCN5CCCCC5)cc4)nc3-c3ccccc32)cc1F` [Example 91, (R)-6-(3,4-difluorophenyl)-N-(4-(2-(piperidin-1-yl)ethyl)phenyl)-5,6-dihydrobenzo[h]quinazolin-2-amine hydrochloride], the IC50 in series [1] was 6.32 µM.

With `Brc1ccc([C@@H]2Cc3cnc(Nc4ccc(CCN5CCCCC5)cc4)nc3-c3ccccc32)cc1` [Example 103, (S)-6-(4-bromophenyl)-N-(4-(2-(piperidin-1-yl)ethyl)phenyl)-5,6-dihydrobenzo[h]quinazolin-2-amine hydrochloride salt], the values for the IC50 in series [1] and in series [2] were 3.57 µM and 0.178 µM, respectively. Turning to `OCc1cccc(Nc2ncc3c(n2)-c2ccccc2[C@H](c2ccccc2F)C3)c1` [Example 176, (R)-(3-(6-(2-fluorophenyl)-5,6-dihydrobenzo[h]quinazolin-2-ylamino)phenyl)methanol], the melting point is 158 to 159 °C. Further, the IC50 in series [2] was determined as 0.109 µM. As for `CN(CCc1ccc(Nc2ncc3c(n2)-c2ccccc2[C@H](c2ccc(F)c(F)c2)C3)cc1)C1CCCCC1` [Example 85, (S)-N-(4-(2-(cyclohexyl(methyl)amino)ethyl)phenyl)-6-(3,4-difluorophenyl)-5,6-dihydrobenzo[h]quinazolin-2-amine hydrochloride], the IC50 in series [1] was 3.88 µM.

In the case of `COCCNCCc1ccc(Nc2ncc3c(n2)-c2ccccc2[C@H](c2ccc(F)c(F)c2)C3)cc1` [Example 86, (S)-6-(3,4-difluorophenyl)-N-(4-(2-(2-methoxyethylamino)ethyl)phenyl)-5,6-dihydrobenzo[h]quinazolin-2-amine hydrochloride], the IC50 in series [1] is 5.13 µM; in series [2], 0.267 µM.

With `Fc1ccc([C@@H]2Cc3cnc(Nc4ccc(CCN5CCCCC5)cc4)nc3-c3ccccc32)cc1` [Example 101, (S)-6-(4-fluorophenyl)-N-(4-(2-(piperidin-1-yl)ethyl)phenyl)-5,6-dihydrobenzo[h]quinazolin-2-amine], the melting point lay within 185 to 188 °C. For the same molecule, the IC50 in series [1] came to 4.03 µM. For the same molecule, the IC50 in series [2] was determined as 0.177 µM. In the case of `Brc1cccc([C@@H]2Cc3cnc(Nc4ccc(CCN5CCCCC5)cc4)nc3-c3ccccc32)c1` [Example 78, (S)-6-(3-bromophenyl)-N-(4-(2-(piperidin-1-yl)ethyl)phenyl)-5,6-dihydrobenzo[h]quinazolin-2-amine hydrochloride], the IC50 in series [1] was 4.85 µM.

As for `CCCCN(C)CCc1ccc(Nc2ncc3c(n2)-c2ccccc2[C@@H](c2ccc(Br)cc2)C3)cc1` [Example 107, (R)-6-(4-bromophenyl)-N-(4-(2-(butyl(methyl)amino)ethyl)phenyl)-5,6-dihydrobenzo[h]quinazolin-2-amine hydrochloride salt], in series [2], the half-inhibitory concentration (IC50) was 0.423 µM. As for `CN(CCc1ccc(Nc2ncc3c(n2)-c2ccccc2[C@H](c2ccc(Cl)c(Cl)c2)C3)cc1)C1CCCCC1` [Example 106, (S)-N-(4-(2-(cyclohexyl(methyl)amino)ethyl)phenyl)-6-(3,4-dichlorophenyl)-5,6-dihydrobenzo[h]quinazolin-2-amine hydrochloride salt], the IC50 in series [1] was determined as 3.05 µM. Consider `COCCN1CCN(CCc2ccc(Nc3ncc4c(n3)-c3ccccc3[C@@H](c3ccc(F)c(F)c3)C4)cc2)CC1` [Example 90, (R)-6-(3,4-difluorophenyl)-N-(4-(2-(4-(2-methoxyethyl)piperazin-1-yl)ethyl)phenyl)-5,6-dihydrobenzo[h]quinazolin-2-amine hydrochloride], for which the IC50 in series [1] was determined as 14.6 µM. For `CN(CCc1ccccc1)CCc1ccc(Nc2ncc3c(n2)-c2ccccc2[C@H](c2ccccc2F)C3)cc1` [Example 93, (R)-6-(2-fluorophenyl)-N-(4-(2-(methyl(phenethyl)amino)ethyl)phenyl)-5,6-dihydrobenzo[h]quinazolin-2-amine hydrochloride salt], the half-inhibitory concentration (IC50) in series [1] is 3.25 µM; in series [2], 0.296 µM.

`CN(CCc1ccc(Nc2ncc3c(n2)-c2ccccc2[C@H](c2ccccc2F)C3)cc1)C1CCCCC1` [Example 95, (R)-N-(4-(2-(cyclohexyl(methyl)amino)ethyl)phenyl)-6-(2-fluorophenyl)-5,6-dihydrobenzo[h]quinazolin-2-amine]: the IC50 came out at 1.13 µM in series [1] and 0.24 µM in series [2].

As to `CCCCN(C)CCc1ccc(Nc2ncc3c(n2)-c2ccccc2[C@H](c2ccc(F)cc2)C3)cc1` [Example 99, (S)-N-(4-(2-(butyl(methyl)amino)ethyl)phenyl)-6-(4-fluorophenyl)-5,6-dihydrobenzo[h]quinazolin-2-amine], the concentration for half-maximal inhibition (IC50) in series [1] stood at 6.16 µM. Consider `OCCc1cc(Nc2ncc3c(n2)-c2ccccc2[C@H](c2ccccc2F)C3)ccc1F` [Example 169], for which the half-maximal inhibitory concentration (IC50) in series [2] was 0.327 µM. Turning to `CN1CCN(CCc2ccc(Nc3ncc4c(n3)-c3ccccc3[C@H](c3ccc(F)c(F)c3)C4)cc2)CC1` [Example 88, (S)-6-(3,4-difluorophenyl)-N-(4-(2-(4-methylpiperazin-1-yl)ethyl)phenyl)-5,6-dihydrobenzo[h]quinazolin-2-amine hydrochloride], the IC50 in series [1] came out at 9.86 µM. The molecule `COCCN1CCN(CCc2ccc(Nc3ncc4c(n3)-c3ccccc3[C@H](c3ccc(F)cc3)C4)cc2)CC1` [Example 100, (S)-6-(4-fluorophenyl)-N-(4-(2-(4-(2-methoxyethyl)piperazin-1-yl)ethyl)phenyl)-5,6-dihydrobenzo[h]quinazolin-2-amine] registered a melting point of 195 to 198 °C. The IC50 in series [1] was 7.36 µM. `CCCCNCCc1cc(Nc2ncc3c(n2)-c2ccccc2[C@H](c2ccccc2F)C3)ccc1F` [Example 171, (R)-N-(3-(2-(butylamino)ethyl)-4-fluorophenyl)-6-(2-fluorophenyl)-5,6-dihydrobenzo[h]quinazolin-2-amine hydrochloride salt]: the IC50 in series [2] is 0.0355 µM. For `COCCNCCc1ccc(Nc2ncc3c(n2)-c2ccccc2[C@H](c2ccccc2F)C3)cc1` [Example 94, (R)-6-(2-fluorophenyl)-N-(4-(2-(2-methoxyethylamino)ethyl)phenyl)-5,6-dihydrobenzo[h]quinazolin-2-amine hydrochloride salt], the half-maximal inhibitory concentration (IC50) in series [1] was determined as 0.895 µM; in series [2] it was 0.00999 µM.

Consider `CN(CCc1ccc(Nc2ncc3c(n2)-c2ccccc2[C@H](c2ccc(F)cc2)C3)cc1)C1CCCCC1` [Example 102, (S)-N-(4-(2-(cyclohexyl(methyl)amino)ethyl)phenyl)-6-(4-fluorophenyl)-5,6-dihydrobenzo[h]quinazolin-2-amine], for which the half-inhibitory concentration (IC50) in series [1] was 3.22 µM; in series [2] it was 0.26 µM.

With `Clc1ccc([C@@H]2Cc3cnc(Nc4cccc(CCN5CCCCC5)c4)nc3-c3ccccc32)cc1Cl` [Example 167, (S)-6-(3,4-dichlorophenyl)-N-(3-(2-(piperidin-1-yl)ethyl)phenyl)-5,6-dihydrobenzo[h]quinazolin-2-amine hydrochloride], the half-inhibitory concentration (IC50) in series [1] was 4.21 µM. On to `COCCN1CCN(CCc2ccc(Nc3ncc4c(n3)-c3ccccc3[C@H](c3ccc(Cl)c(Cl)c3)C4)cc2)CC1` [Example 115, (S)-6-(3,4-dichlorophenyl)-N-(4-(2-(4-(2-methoxyethyl)piperazin-1-yl)ethyl)phenyl)-5,6-dihydrobenzo[h]quinazolin-2-amine hydrochloride], for which the IC50 in series [1] came to 3.03 µM; in series [2], 0.211 µM.

For `COCCN1CCN(CCc2ccc(Nc3ncc4c(n3)-c3ccccc3[C@H](c3cccc(Br)c3)C4)cc2)CC1` [Example 77, (S)-6-(3-bromophenyl)-N-(4-(2-(4-(2-methoxyethyl)piperazin-1-yl)ethyl)phenyl)-5,6-dihydrobenzo[h]quinazolin-2-amine hydrochloride], the IC50 in series [1] was 4.47 µM; in series [2], 0.118 µM.

A word on the IC50: it is the midpoint of a concentration-inhibition curve. A word on the melting point: it is the temperature of the solid-liquid transition.
